Measurements reported in patent US11413278B2, “Compounds and methods for promoting stress resistance” (priority 2015, dated 2022).
“Also recorded” adds a separate entry of the source. Like-named read-outs stand apart in the source and are kept apart here.

Legend:
[1] = system: human dermal fibroblast (HDF) primary cells; assay: H2O2-resistance in primary human dermal fibroblasts; assay type: cell-based; settings: YES/NO
human PARP1 = biological target: T1, human PARP1 (Homo sapiens, UniProt P09874); assay: PARP inhibitor assay (HT Fluorescent Homogeneous PARP Inhibition Assay Kit); assay type: biochemical; settings: 10 μM, in vitro
T1 construct: purchased Trevigen
T1 sequence (P09874 whole entry): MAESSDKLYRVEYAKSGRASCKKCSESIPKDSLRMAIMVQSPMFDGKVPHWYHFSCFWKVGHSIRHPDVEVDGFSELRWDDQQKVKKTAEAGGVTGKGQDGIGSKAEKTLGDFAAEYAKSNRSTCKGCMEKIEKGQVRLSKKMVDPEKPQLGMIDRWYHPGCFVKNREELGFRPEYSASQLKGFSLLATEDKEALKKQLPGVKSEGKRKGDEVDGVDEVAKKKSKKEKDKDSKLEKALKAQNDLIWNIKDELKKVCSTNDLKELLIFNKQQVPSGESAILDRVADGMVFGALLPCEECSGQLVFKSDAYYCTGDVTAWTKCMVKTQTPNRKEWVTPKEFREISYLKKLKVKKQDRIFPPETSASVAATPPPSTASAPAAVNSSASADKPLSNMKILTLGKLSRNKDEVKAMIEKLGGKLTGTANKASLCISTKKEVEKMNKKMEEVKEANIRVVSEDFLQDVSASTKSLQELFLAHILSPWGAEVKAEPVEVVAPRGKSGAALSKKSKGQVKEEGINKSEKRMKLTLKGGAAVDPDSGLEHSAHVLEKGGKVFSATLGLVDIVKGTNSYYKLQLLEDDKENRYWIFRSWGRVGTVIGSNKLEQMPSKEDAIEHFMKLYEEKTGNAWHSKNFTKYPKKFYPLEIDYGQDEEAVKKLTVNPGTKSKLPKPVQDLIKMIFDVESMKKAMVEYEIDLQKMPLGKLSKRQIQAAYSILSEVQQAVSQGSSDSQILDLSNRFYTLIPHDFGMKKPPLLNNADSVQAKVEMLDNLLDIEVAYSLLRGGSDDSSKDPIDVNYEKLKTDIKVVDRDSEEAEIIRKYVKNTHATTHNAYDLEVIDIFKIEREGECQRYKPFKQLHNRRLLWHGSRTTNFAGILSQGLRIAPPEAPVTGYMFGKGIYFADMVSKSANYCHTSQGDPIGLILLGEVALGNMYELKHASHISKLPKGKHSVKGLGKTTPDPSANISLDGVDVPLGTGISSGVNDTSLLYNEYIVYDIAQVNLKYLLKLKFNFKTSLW
Experimental: (§1) The assay was performed with the HT Fluorescent Homogeneous PARP Inhibition Assay Kit (Trevigen), following manufacturer's instructions. Briefly, nicotinamide adenine dinucleotide, human PARP1 and activated-DNA solution was added onto a 96-well plate. 54 repurchased small molecules, at 10 μM final concentration, were introduced onto the 96-well assay plate and incubated in a humid chamber at room temperature for 30 min in dark. Cycling mixture, with resazurin and cycling enzyme diaphorase, was then added and incubated further for 1 hr in dark. Reaction was terminated by adding the stopping buffer.
as §1, with “(Trevegen),” for “(Trevigen),”, “stopped” for “terminated”

C. elegans = C. elegans lifespan assays (liquid and plate); assay type: in vivo, Caenorhabditis elegans; settings: Caenorhabditis elegans, at 66 uM
WI-38 cells [2] = settings: for Assay 1: H2O2-resistant: YES/NO, if NO, possibly due to repeated freezing/thawing of stocks; for EC50: read-out: Est. ED50, dose response 0.6-20 μM, H2O2-resistance
WI-38 cells [3] = assay: CdCl2 (cadmium) resistance assay; assay type: cell-based, human; settings: YES/NO; for Assay 2: Cadmium-resistant: * indicates partial
Experimental: (§2) For many stress conditions tested previously, one significant correlation to longevity is the cellular resistance to H2O2 or CdCl2. Applicants then tested these small molecules, at five different final concentrations (0.25 μM to 20 μM), for cadmium and MMS resistance in WI-38 cells.
(§3) The setups on 384-well plates and incubation times were the same as for H2O2 until the time of incubation with the stressors, which was 12 hours for both cadmium and MMS assays. Applicants tested several conditions, including conditions used to assay fibroblasts from long-lived animals (Salmon et al., 2005). These conditions produced better results with the positive controls (KEAP1 and AKT1 siRNAs) in the MMS assay. Thus, for MMS, the cells were shifted from growth media—OptiMEM+10% FBS, to DMEM (Gibco)+2% BSA (no serum) just before adding small molecules, which occurred 24 hours before MMS addition.
(§4) Isolated small molecules were tested for MMS and cadmium resistance twice in two independent assays. Each small molecule was analyzed at five different concentrations (0.25 μM to 20 μM final concentration), with technical triplicates for each dose. Data were analyzed using a global variance t-test.

[4] = system: HTB-178 lung tumor cells (EGFR+, PIK3CA+, RB1−, TP53−); assay: Killing effects on HTB-178 tumor cells; assay type: cell-based, human; settings: Assay 1(y); at 10 uM, 1st
WI-38 cells [5] = assay: MMS resistance assay; assay type: cell-based, human; settings: YES/NO
Experimental: as §2, §3, §4

NRF2 [6] = assay: in vitro; assay type: cell-based, human; settings: 10 uM; YES/NO
Experimental: For qPCR analysis, WI-38 cells were treated with small molecules (at 10 μM) (biological quadruplicates) for 24 hrs and processed for RNA isolation and reverse transcription (RT) with the Cells-to-Ct Kit (Life Technologies), following manufacturer's instructions. RT products were diluted with H2O and used for qPCR analysis on an ABI 7300 system (Life Technologies) (technical triplicates). Relative expression levels of target genes were normalized to the genes B2M, PPIA and GAPDH. To knock down the expression of FOXO3 or NRF2, WI-38 cells were transfected, using the RNAiMAX reagents (Life Technologies), with siRNA oligos (at 10 nM final concentration, 10 ml culture medium) for FOXO3 (Life Technologies) or NRF2 (Integrated DNA Technologies) on 10-cm petri dishes for 36 hrs, and then detached and aliquoted onto 96-well (for qPCR analysis) or 384-well plates (for H2O2-stress treatment). ˜24 hrs later, small molecules were introduced and incubated with cells for 24 hrs. Cells were then either processed with the Cells-to-Ct Kit to prepare RT products for qPCR analysis or subjected to H2O2 (700 μM) for 3 hrs and assayed for viability. The knockdown efficiency of FOXO3 or NRF2 was checked at 36 hrs post-transfection and at the end as well.
For qPCR analysis, WI-38 cells were treated with small molecules (at 10 μM) (biological quadruplicate) for 24 hrs and processed for RNA isolation and reverse transcription (RT) with the Cells-to-Ct Kit (Life Technologies), following manufacturer's instructions. RT products were diluted with H2O and used for qPCR analysis on a LightCycler 480 system (Roche) (technical triplicates). Relative expression levels of target genes were normalized to the genes B2M, PPIA and GAPDH. To knock down the expression of FOXO3 or NRF2, WI-38 cells were transfected with siRNA oligos (at 10 nM final concentration) for FOXO3 (Life Technologies) or NRF2 on 10-cm petri dish for 36 hrs, and then detached and aliquoted onto 96-well plates. ˜24 hrs later, small molecules were introduced and incubated with cells for 24 hrs. Cells were then processed with the Cells-to-Ct Kit to prepare RT products for qPCR analysis. The knockdown efficiency of FOXO3 or NRF2 was checked at 36 hrs post-transfection and at the end as well.
Of these, O15 and O20 consistently (in 3 of 3 experiments) required NRF2 to promote H2O2-resistance, and their resistance capacities were reduced by ˜90% on average upon NRF2 knockdown under conditions tested.

FOXO3 = assay: qPCR analysis of FOXO3-regulated genes; assay type: cell-based, human; settings: Homo sapiens, 24 h; Assay 10(m); at 10 uM, qPCR; read-out: Induction of FOXO3-regulated genes: SOD2 normalized fold-change
Procedure, shortened: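 WI-38 cells treated with compound at 10 μM for 24 h, followed by Cells-to-Ct RT-qPCR of FOXO3 target genes normalised to B2M, PPIA and GAPDH. FOXO3 or NRF2 dependence tested by prior 10 nM siRNA knockdown (36 h transfection, compound added ~24 h after replating).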

NRF2 [7] = assay: qPCR analysis of NRF2-regulated genes; assay type: cell-based, human; settings: Homo sapiens, 24 h; Assay 12(o); at 10 uM, qPCR; read-out: Induction of NRF2-regulated genes: GSTM1 normalized fold-change
Procedure, shortened: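 WI-38 cells treated with compound at 10 μM for 24 hrs, then processed by Cells-to-Ct for RNA isolation, RT and qPCR of NRF2-regulated genes (HMOX1, NQO1, GCLC, GSTM1). Expression normalized to B2M, PPIA and GAPDH; siRNA knockdown of FOXO3 or NRF2 (10 nM) preceded treatment in some runs.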

[8] = Assay 2(z), 1.0 × 10^9 bacteria/ml, wild type + FuDR (2012 July), read-out: Lifespan assay in liquid
[9] = Assay 3(aa), 2.5 × 10^9 bacteria/ml, wild type + FuDR, read-out: Lifespan assay in liquid
[10] = Assay 4(ab), 2.0 × 10^10 bacteria/ml, CF512 worms, no FuDR, read-out: Lifespan assay on plates

SMILES	Assay 6: H2O2-resistant, at 10 uM, human dermal fibroblast (HDF) primary cells [1]	Inhibition of PARP1 (human PARP1)	ILS at 66 µM (C. elegans; [8]) [%]	ILS at 66 µM (C. elegans; [9]) [%]	ILS at 66 µM (C. elegans; [10]) [%]	Assay 1: H2O2-resistant (WI-38 cells [2])	EC50 (WI-38 cells [2]) [µM]	Assay 4: H2O2- & Cd-resistant (WI-38 cells [3])	Assay 2: Cadmium-resistant (WI-38 cells [3])	Potential killing effects on HTB-178 tumor cells, 1st [4]	Assay 3: MMS-resistant (WI-38 cells [5]; * indicates partial)	Assay 5: Triple resistant (WI-38 cells [5]; H2O2, cadmium and MMS)	Assay 17: NRF2-dependency for H2O2-resistance (NRF2 [6])	fold induction at 10 µM (FOXO3)	fold induction at 10 µM (NRF2 [7])
Oc1nnc(Cc2ccncc2)c2ccccc12 [Gr-2B]	YES	inhibitors of PARP1; also recorded: PARP inhibitors	2.5	-1.1	14.1	YES	3.05	YES	YES	YES;	YES	YES			
CC(COc1ccc2c(c1)OCO2)NC(=O)Cc1nnc(O)c2ccccc12 (stereo not shown) [Gr-2E]	YES	PARP inhibitors	3.3	4	9.7	YES	3.82	YES	YES	YES;			YES		
O=C(CCCc1nnc2n3nc(-c4ccccc4)nc3c3ccccc3n12)N1CCOCC1 [O8]	YES		6.6	3.8	10		20			YES;				1.07	0.82
